Test results reported in ChEMBL document CHEMBL5236598, “Lead Optimization and Avoidance of Metabolic-perturbing Motif Developing Novel Diarylpyrimidines as Potent HIV-1 NNRTIs” (J Med Chem, 2022).
≈ marks a conversion by molar mass, not a printed value.

Legend:
[1] = test system: Human immunodeficiency virus 1; assay: Antiviral activity against wild type HIV-1 IIIB infected in human MT4 cells assessed as protection against virus-induced cytopathic effect incubated for 5 days by MTT assay; assay type: functional, organism-based; details: Human immunodeficiency virus 1, IIIB, MT4, 120 h
[2] = test system: Human immunodeficiency virus 1; assay: Antiviral activity against HIV-1 RES056 harboring RT K103N/Y181C double mutant infected in human MT4 cells assessed as protection against virus-induced cytopathic effect incubated for 5 days by MTT assay; assay type: functional, organism-based; details: Human immunodeficiency virus 1, RES056, MT4, 120 h
[3] = Cytotoxicity against human MT4 cells assessed as reduction in cell viability measured after 5 days by MTT assay; assay type: toxicity, cell-based; details: time 5 day
[4] = Selectivity index, ratio of CC50 for cytotoxicity against human MT4 cells to EC50 for antiviral activity against wild type HIV-1 IIIB infected in human MT4 cells; assay type: toxicity, cell-based; details: read-out: Ratio CC50/EC50
[5] = Selectivity index, ratio of CC50 for cytotoxicity against human MT4 cells to EC50 for antiviral activity against HIV-1 RES056 harboring RT K103N/Y181C double mutant infected in human MT4 cells; assay type: toxicity, cell-based; details: read-out: Ratio CC50/EC50
[6] = test system: Human immunodeficiency virus 1; assay: Antiviral activity against HIV-1 harboring RT L100I mutant infected in human MT4 cells assessed as protection against virus-induced cytopathic effect incubated for 5 days by MTT assay; assay type: functional, organism-based; details: Human immunodeficiency virus 1, MT4, 120 h
[7] = test system: Human immunodeficiency virus 1; assay: Antiviral activity against HIV-1 harboring RT K103N mutant infected in human MT4 cells assessed as protection against virus-induced cytopathic effect incubated for 5 days by MTT assay; assay type: functional, organism-based; details: Human immunodeficiency virus 1, MT4, 120 h
[8] = test system: Human immunodeficiency virus 1; assay: Antiviral activity against HIV-1 harboring RT Y181C mutant infected in human MT4 cells assessed as protection against virus-induced cytopathic effect incubated for 5 days by MTT assay; assay type: functional, organism-based; details: Human immunodeficiency virus 1, MT4, 120 h
[9] = test system: Human immunodeficiency virus 1; assay: Antiviral activity against HIV-1 harboring RT Y188L mutant infected in human MT4 cells assessed as protection against virus-induced cytopathic effect incubated for 5 days by MTT assay; assay type: functional, organism-based; details: Human immunodeficiency virus 1, MT4, 120 h
[10] = test system: Human immunodeficiency virus 1; assay: Antiviral activity against HIV-1 harboring RT E138K mutant infected in human MT4 cells assessed as protection against virus-induced cytopathic effect incubated for 5 days by MTT assay; assay type: functional, organism-based; details: Human immunodeficiency virus 1, MT4, 120 h
[11] = test system: Human immunodeficiency virus 1; assay: Antiviral activity against HIV-1 harboring RT F227L/V106A double mutant infected in human MT4 cells assessed as protection against virus-induced cytopathic effect incubated for 5 days by MTT assay; assay type: functional, organism-based; details: Human immunodeficiency virus 1, MT4, 120 h
[12] = biological target: T1, Human immunodeficiency virus type 1 reverse transcriptase (Human immunodeficiency virus 1, UniProt Q72547); assay: Binding affinity to HIV-1 reverse transcriptase assessed as dissociation constant by SPR analysis
[13] = biological target: T1, Human immunodeficiency virus type 1 reverse transcriptase; assay: Inhibition of wild type recombinant HIV-1 reverse transcriptase using biotin-labelled dNTPs as substrate assessed as inhibition of biotin-labelled UTP incorporation incubated for 1 hr by ELISA
[14] = Aqueous solubility of compound at pH 2 at 0.1 to 10 mg; assay type: physicochemical; details: aqueous medium, dose 0.1-10 mg
[15] = Aqueous solubility of compound at pH 7 at 0.1 to 10 mg; assay type: physicochemical; details: aqueous medium, dose 0.1-10 mg
[16] = Aqueous solubility of compound at pH 7.4 at 0.1 to 10 mg; assay type: physicochemical; details: aqueous medium, dose 0.1-10 mg
[17] = Metabolic stability in human liver microsomes assessed as half life preincubated for 10 mins followed by NADPH regenerating system addition and measured after 2 hrs by LC-MS/MS analysis; assay type: ADME, Microsome; details: time 130 min
[18] = test system: Human immunodeficiency virus 1; assay: Potency index, ratio of Etravirine EC50 to test compound EC50 for antiviral activity against HIV-1 harboring RT K103N mutant infected in human MT4 cells assessed as protection against virus-induced cytopathic effect incubated for 5 days by MTT assay; assay type: functional; details: time 5 day
[19] = test system: Human immunodeficiency virus 1; assay: Potency index, ratio of Etravirine EC50 to test compound EC50 for antiviral activity against HIV-1 harboring RT E138K mutant infected in human MT4 cells assessed as protection against virus-induced cytopathic effect incubated for 5 days by MTT assay; assay type: functional; details: time 5 day

Compound	EC50 [1] [nM]	EC50 [2] [nM]	CC50 at 120 h [3] [nM]	selectivity ratio [4]	selectivity ratio [5]	also measured
Cc1cc(/C=C/C#N)cc(C)c1Oc1nc(Nc2ccc(C#N)c(F)c2)nc2c1COC2	2.22	53.3	45600	20600	857	EC50 [6]: 3.04 nM; EC50 [7]: 2.87 nM; EC50 [8]: 10.2 nM; EC50 [9]: 13.2 nM; EC50 [10]: 9.77 nM; EC50 [11]: 19.8 nM; Kd [12]: 2500 nM; IC50 [13]: 50 nM; solubility [14]: 23.1 µg/mL (≈ 54 µM); solubility [15]: 12.3 µg/mL (≈ 28.8 µM); solubility [16]: 5.7 µg/mL (≈ 13.3 µM)
Cc1cc(C#N)cc(C)c1Oc1nc(Nc2ccc(C#N)cc2)nc(N)c1Br [ETRAVIRINE]	3.3	76.2	> 4610			EC50 [7]: 4.3 nM; EC50 [9]: 25.1 nM; EC50 [10]: 18.1 nM; EC50 [11]: 25.4 nM
Cc1cc(C#N)cc(C)c1Oc1nc(NC2CCN(c3ccc(NS(N)(=O)=O)cc3)CC2)nc2sccc12	12.9	633	24900	1930	39	
Cc1cc(/C=C/C#N)cc(C)c1Oc1nc(Nc2ccc(C#N)nc2)nc2c1COC2	2.4	71.7	213000	88900	2980	EC50 [6]: 6.64 nM; EC50 [7]: 1.34 nM; EC50 [8]: 9.75 nM; EC50 [9]: 44.6 nM; EC50 [10]: 3.23 nM; EC50 [11]: 110 nM; IC50 [13]: 40 nM
Cc1cc(/C=C/C#N)cc(C)c1Oc1nc(NC2CCN(c3ccc(NS(N)(=O)=O)cc3F)CC2)nc2ccsc12	7.46	832	21700	2910	26	
N#C/C=C/c1cc(F)c(Oc2nc(Nc3ccc(C#N)nc3)nc3c2COC3)c(F)c1	5.77	12200	243000	42100	20	
Cc1cc(C#N)cc(C)c1Oc1nc(NC2CCN(c3ccc(NS(N)(=O)=O)cc3F)CC2)nc2sccc12	7.9	3410	21500	2720	6	
C[C@]12CC[C@H]3[C@@H](CCC4=CC(=O)CC[C@@]43C)[C@@H]1CC[C@@H]2O [TESTOSTERONE]						half-life [17]: 11.1 min
N#C/C=C/c1cc(F)c(Oc2nc(Nc3ccc(C#N)c(F)c3)nc3sccc23)c(F)c1	52.4	> 117000	117000	2240	< 1	
Cc1cc(C#N)cc(C)c1Oc1nc(NC2CCN(c3c(F)cc([N+](=O)[O-])cc3F)CC2)nc2sccc12	45.1	> 211000	> 233000	> 5170	< 1	
Cc1cc(-c2ccc(C#N)cc2)cc(C)c1Oc1nc(Nc2ccc(C#N)nc2)nc2ccsc12	7.62	381	214000	28100	563	
Cc1cc(C#N)cc(C)c1Oc1nc(NC2CCN(c3ccc([N+](=O)[O-])cc3F)CC2)nc2sccc12	40	> 37400	37400	935	< 1	
Cc1cc(-c2ccc(C#N)cc2)cc(C)c1Oc1nc(Nc2ccc(C#N)c(F)c2)nc2sccc12	84.7	493	> 254000	> 3010	> 517	
Cc1cc(C#N)cc(C)c1Oc1nc(NC2CCN(c3ccc([N+](=O)[O-])cc3F)CC2)nc2ccsc12	32.1	> 30300	740000	23100	< 1	
Cc1cc(/C=C/C#N)cc(C)c1Oc1nc(NC2CCN(c3ccc(N)cc3F)CC2)nc2sccc12	32.5	1060	13600	418	13	
N#C/C=C/c1cc(F)c(Oc2nc(Nc3ccc(C#N)c(F)c3)nc3ccsc23)c(F)c1	109	6710	96000	878	14	
N#C/C=C/c1cc(F)c(Oc2nc(Nc3ccc(C#N)nc3)nc3cc[nH]c23)c(F)c1	147	> 29000	29000	197	< 1	
Cc1cc(-c2ccc(C#N)cc2)cc(C)c1Oc1nc(Nc2ccc(C#N)nc2)nc2sccc12	10.9	1520	181000	16600	119	
Cc1cc(C#N)cc(C)c1Oc1nc(NC2CCN(c3ccc([N+](=O)[O-])cc3)CC2)nc2sccc12	20.6	53800	> 249000	> 12100	> 5	
N#C/C=C/c1cc(F)c(Oc2nc(Nc3ccc(C#N)nc3)nc3ccsc23)c(F)c1	1.79	2200	47500	26500	22	EC50 [6]: 19.2 nM; EC50 [7]: 2.55 nM; EC50 [8]: 66.5 nM; EC50 [9]: > 47500 nM; EC50 [10]: 7.46 nM; EC50 [11]: 1450 nM; Ratio EC50 [18]: 2; Ratio EC50 [19]: 2; IC50 [13]: 40 nM
Cc1cc(/C=C/C#N)cc(C)c1Oc1nc(NC2CCN(c3ccc([N+](=O)[O-])cc3F)CC2)nc2sccc12	29.6	1360	> 229000	> 7740	> 169	
Cc1cc(/C=C/C#N)cc(C)c1Oc1nc(NC2CCN(c3c(F)cc(NS(N)(=O)=O)cc3F)CC2)nc2ccsc12	37.1	1940	20000	539	10	
Cc1cc(C#N)cc(C)c1Oc1nc(NC2CCN(c3ccc(N)cc3F)CC2)nc2ccsc12	40.4	> 12200	12100	300	< 1	
N#C/C=C/c1cc(F)c(Oc2nc(Nc3ccc(C#N)c(F)c3)nc3c2COC3)c(F)c1	1.67	314	243000	145000	773	EC50 [6]: 6.9 nM; EC50 [7]: 2.41 nM; EC50 [8]: 13.9 nM; EC50 [9]: 214 nM; EC50 [10]: 3.45 nM; EC50 [11]: 384 nM; IC50 [13]: 30 nM
Cc1cc(/C=C/C#N)cc(C)c1Oc1nc(Nc2ccc(C#N)c(F)c2)nc2cc[nH]c12	4470	45800	188000	42	4.1	
N#C/C=C/c1cc(F)c(Oc2nc(Nc3ccc(C#N)nc3)nc3sccc23)c(F)c1	6.98	7560	12800	1840	1.7	
Cc1cc(-c2ccc(F)cc2)cc(C)c1Oc1nc(Nc2ccc(C#N)c(F)c2)nc2sccc12	583	11100	28900	50	2.6	
Cc1cc(/C=C/C#N)cc(C)c1Oc1nc(NC2CCN(c3c(F)cc(N)cc3F)CC2)nc2ccsc12	32	1580	7880	246	5	
Cc1cc(-c2ccc(F)cc2)cc(C)c1Oc1nc(Nc2ccc(C#N)c(F)c2)nc2ccsc12	695	8600	97300	140	11	
